From patent US20230312550A1, “N-(2-(4-CYANOTHIAZOLIDIN-3-YL)-2-OXOETHYL)-QUINOLINE-4-CARBOXAMIDES” (AstraZeneca AB, priority 2020, published 2023)
Values after ≈ are worked out from the molar mass of the structure shown.

Columns and labels:
Caco-2 cell permeability = conditions: human
Protocol: Caco-2 cell permeability was measured as described in Mol Pharm 2017, 14, 1601.

[1] = biological target: human Fibroblast activation protein alpha (hFAP) (Homo sapiens (Human), UniProt Q12884); test: hFAP inhibition assay (tight binders); format: biochemical; conditions: Ala-Pro-AMC 20 μM, n = 1 or geometric mean n = 2-6; note: hFAP 2.4 pM
Protocol: The plates were read on a PHERAstar® reader with excitation 340 nm and emission 460 nm. Data were analyzed in Genedata Screener®. IC50 values were determined by plotting % inhibition versus log compound concentration and using a one site dose response model.

FAP [2] = biological target: FAP (Mus musculus (Mouse), UniProt P97321); test: FAP plasma inhibition assay, mouse plasma; format: biochemical; conditions: mouse plasma diluted 1:67, Ala-Pro-AMC 75 μM
Protocol: (§1) This assay was adapted from the method described in Example 237 for detection of FAP target engagement enzyme activity in plasma. Plasma (anticoagulant K2EDTA) was used as the enzyme source: Human plasma (Pooled from AZ Biobank), Mouse plasma (AZ AST Biobank), and Cynomolgus plasma (BioIVT, #NHP00PLK2FNN, lot CYN222895). 384-Well black fluotrack PS plates (Greiner 781076) were used. 20 μL diluted plasma (Cynomolgus and Human plasma dilution 1:40, Mouse plasma dilution 1:67) in buffer (PBS, 0.1% BSA) was added to 0.6 μL compounds (in DMSO). Compounds were tested using 10 CR, 3 fold dilution series from 500 nM FAC. Two replicates for each assay point were run on the same plate. A fluorescence blank read was taken before substrate addition. […] Plates were incubated for 40 min at rt in the dark. […] IC50 values were determined by plotting % inhibition versus log compound concentration.

[3] = Metabolic stability in rat hepatocytes (rHep); conditions: n = 1 or geometric mean of n = 2-3
hFAP (M39-A757) = hFAP (M39-A757) (Homo sapiens (Human), UniProt Q12884); test: hFAP binding assay (surface plasmon resonance); conditions: SPR, 20° C.; for hFAP Binding assay k(off) / hFAP Binding assay k(on): single cycle kinetics; for Kd: n = 1 or geometric mean n = 2-4
Kinetic solubility = conditions: kinetic from dmso stock, Solubility, kinetic solubility; n = 1 or average of n = 2-3
Protocol: Kinetic solubility was measured as described in Comput Aided Mol Des 2015, 29, 795.

[4] = biological target: Prolyl endopeptidase, Prolyl Oligopeptidase (hPREP) (Homo sapiens (Human), UniProt P48147); test: hPrep inhibition assay; format: biochemical; conditions: hPREP 0.6 nM, Z-Gly-Pro-amino-methylcoumarin 50 μM; read-out: PREP IC50
Method in brief: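 Fluorogenic read-out (340 nm excitation, 460 nm emission) after 20 min at rt, using 50 μM final Z-Gly-Pro-aminomethylcoumarin and 0.6 nM final enzyme, following 15 min compound preincubation. Buffer pH 7.5 with glutathione and Triton X-100. IC50 via one-site model on % inhibition vs log concentration.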

[5] = Metabolic stability in human hepatocytes (hHep); format: in vitro ADME; conditions: n = 1 or geometric mean of n = 2
FAP [6] = biological target: T1, FAP (Homo sapiens (Human), UniProt Q12884); test: FAP plasma inhibition assay, human plasma; format: biochemical; conditions: human plasma diluted 1:40, Ala-Pro-AMC 75 μM
Protocol: as §1
Target sequence in this assay (Q12884 24-760): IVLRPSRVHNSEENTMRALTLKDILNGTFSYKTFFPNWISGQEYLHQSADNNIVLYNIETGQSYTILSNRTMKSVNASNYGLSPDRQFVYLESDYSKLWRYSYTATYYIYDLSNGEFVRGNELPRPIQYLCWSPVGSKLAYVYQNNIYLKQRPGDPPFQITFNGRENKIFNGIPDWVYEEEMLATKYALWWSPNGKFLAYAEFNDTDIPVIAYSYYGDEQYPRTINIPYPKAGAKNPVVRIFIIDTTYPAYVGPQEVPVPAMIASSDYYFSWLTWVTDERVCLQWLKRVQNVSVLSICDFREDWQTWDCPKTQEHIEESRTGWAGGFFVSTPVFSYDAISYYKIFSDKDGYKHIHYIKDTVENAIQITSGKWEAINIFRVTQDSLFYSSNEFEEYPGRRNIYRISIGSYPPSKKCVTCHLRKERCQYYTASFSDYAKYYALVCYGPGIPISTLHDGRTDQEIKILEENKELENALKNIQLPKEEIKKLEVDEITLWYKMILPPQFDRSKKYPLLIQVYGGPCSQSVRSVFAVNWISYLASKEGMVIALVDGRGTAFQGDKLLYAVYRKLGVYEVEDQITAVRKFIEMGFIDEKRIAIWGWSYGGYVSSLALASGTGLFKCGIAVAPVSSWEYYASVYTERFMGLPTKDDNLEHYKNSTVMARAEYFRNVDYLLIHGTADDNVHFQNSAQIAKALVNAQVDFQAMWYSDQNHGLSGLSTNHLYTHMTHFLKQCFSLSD

[7] = Metabolic stability in human liver microsomes (HLM); conditions: human, HLM CLint, n = 1 or average of n = 2-3
Protocol: Metabolic stability in HLM was measured as described in J Comput Aided Mol Des 2015, 29, 795.

FAP [8] = biological target: T1, FAP; test: hFAP inhibition assay; format: biochemical; conditions: hFAP […], Ala-Pro-AMC 20 μM; n = 1 or geometric mean n = 2-3
Method in brief: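 Compounds (10-point, 3-fold dilutions from 50 μM top) were preincubated 15 min at rt in the dark with 0.48 nM hFAP in pH 7.4 Tris/NaCl/Chaps buffer. Reaction was started with substrate (40 μM solution) and ran 30 min at rt. Read by fluorescence (340/460 nm); IC50 from one-site fit.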
Target sequence in this assay (Q12884 38-760): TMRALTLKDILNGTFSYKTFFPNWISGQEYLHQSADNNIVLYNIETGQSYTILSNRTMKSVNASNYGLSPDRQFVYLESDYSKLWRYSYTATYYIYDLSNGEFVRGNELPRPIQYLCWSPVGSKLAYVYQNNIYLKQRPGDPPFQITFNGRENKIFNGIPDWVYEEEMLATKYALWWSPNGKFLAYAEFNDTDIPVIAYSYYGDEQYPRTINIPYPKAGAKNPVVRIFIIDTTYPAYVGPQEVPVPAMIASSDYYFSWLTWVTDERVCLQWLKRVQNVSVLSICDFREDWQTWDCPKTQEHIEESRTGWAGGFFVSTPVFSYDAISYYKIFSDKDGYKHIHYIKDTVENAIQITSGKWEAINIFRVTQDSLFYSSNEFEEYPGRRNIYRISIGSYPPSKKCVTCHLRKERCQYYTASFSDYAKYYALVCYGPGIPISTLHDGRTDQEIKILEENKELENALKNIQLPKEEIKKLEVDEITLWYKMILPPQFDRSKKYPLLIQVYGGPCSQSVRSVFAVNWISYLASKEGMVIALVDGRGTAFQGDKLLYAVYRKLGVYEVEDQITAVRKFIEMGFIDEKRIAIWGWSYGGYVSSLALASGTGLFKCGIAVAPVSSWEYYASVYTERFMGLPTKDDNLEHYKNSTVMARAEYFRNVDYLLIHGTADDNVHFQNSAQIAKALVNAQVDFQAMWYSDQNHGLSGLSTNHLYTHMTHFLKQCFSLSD

human Fibroblast activation protein alpha (hFAP), sequence (Q12884 38-760): as above
hFAP (M39-A757), sequence (Q12884 39-757): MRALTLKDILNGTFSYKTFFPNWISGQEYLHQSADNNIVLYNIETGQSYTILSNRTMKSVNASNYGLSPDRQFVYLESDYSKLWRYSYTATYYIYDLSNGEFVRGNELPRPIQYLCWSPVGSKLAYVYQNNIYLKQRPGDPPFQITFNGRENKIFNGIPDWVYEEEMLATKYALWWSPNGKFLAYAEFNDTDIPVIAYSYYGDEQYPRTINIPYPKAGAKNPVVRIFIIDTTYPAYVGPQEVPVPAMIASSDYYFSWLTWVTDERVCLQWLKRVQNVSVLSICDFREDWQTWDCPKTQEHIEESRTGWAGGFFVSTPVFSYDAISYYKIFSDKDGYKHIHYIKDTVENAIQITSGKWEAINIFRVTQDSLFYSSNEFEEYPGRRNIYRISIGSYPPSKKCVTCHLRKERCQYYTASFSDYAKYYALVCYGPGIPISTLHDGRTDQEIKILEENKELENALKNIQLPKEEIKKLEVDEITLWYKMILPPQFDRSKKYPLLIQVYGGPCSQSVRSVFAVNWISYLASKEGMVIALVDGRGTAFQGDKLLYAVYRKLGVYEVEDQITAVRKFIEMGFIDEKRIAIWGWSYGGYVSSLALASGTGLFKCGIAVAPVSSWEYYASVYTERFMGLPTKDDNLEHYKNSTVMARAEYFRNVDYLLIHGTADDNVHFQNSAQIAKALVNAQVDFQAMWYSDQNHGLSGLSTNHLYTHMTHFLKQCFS
FAP (Mus musculus (Mouse), UniProt P97321), sequence (P97321 24-761): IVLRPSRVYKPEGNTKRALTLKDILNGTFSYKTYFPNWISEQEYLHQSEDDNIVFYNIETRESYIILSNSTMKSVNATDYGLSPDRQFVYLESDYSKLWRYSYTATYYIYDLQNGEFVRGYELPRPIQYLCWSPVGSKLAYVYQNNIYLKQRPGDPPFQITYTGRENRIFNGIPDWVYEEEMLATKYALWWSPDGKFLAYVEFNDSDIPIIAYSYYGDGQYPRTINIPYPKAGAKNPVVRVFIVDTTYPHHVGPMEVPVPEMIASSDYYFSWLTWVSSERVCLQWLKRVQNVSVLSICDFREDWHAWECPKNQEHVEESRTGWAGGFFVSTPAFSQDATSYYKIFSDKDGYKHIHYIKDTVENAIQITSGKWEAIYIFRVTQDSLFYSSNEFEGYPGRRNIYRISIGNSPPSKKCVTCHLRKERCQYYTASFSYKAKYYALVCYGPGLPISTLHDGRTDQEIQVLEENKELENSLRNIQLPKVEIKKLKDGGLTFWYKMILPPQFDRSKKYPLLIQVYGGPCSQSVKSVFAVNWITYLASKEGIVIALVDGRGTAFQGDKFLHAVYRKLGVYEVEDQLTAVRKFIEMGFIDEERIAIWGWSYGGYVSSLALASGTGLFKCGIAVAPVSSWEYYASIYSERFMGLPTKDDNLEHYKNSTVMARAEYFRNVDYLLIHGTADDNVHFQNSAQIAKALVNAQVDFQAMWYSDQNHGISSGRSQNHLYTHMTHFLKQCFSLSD
Prolyl endopeptidase, Prolyl Oligopeptidase (hPREP), sequence (P48147 whole entry): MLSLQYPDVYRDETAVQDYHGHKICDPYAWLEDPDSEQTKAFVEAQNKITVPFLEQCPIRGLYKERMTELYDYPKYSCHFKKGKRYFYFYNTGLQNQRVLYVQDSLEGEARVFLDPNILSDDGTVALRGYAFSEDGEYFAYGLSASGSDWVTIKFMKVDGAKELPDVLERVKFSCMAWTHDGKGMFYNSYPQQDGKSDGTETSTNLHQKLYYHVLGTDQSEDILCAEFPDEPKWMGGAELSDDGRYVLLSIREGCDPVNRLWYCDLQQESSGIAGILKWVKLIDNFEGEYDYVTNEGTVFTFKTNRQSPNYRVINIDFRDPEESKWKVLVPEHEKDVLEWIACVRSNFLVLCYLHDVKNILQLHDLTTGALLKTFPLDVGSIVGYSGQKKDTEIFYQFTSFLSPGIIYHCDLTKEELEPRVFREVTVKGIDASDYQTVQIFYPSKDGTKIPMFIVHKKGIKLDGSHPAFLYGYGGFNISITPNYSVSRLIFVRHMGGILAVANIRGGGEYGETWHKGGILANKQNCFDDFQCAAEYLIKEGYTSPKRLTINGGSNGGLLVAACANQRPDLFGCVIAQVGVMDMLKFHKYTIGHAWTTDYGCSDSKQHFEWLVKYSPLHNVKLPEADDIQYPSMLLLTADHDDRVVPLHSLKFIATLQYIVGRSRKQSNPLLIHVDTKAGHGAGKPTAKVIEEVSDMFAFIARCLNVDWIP

| SMILES | Papp (Caco-2 cell permeability) | Papp A→B (Caco-2 cell permeability) | Papp B→A (Caco-2 cell permeability) | efflux ratio (Caco-2 cell permeability) | IC50 [1] | IC50 (FAP [2]) | rHep CLint [3] | hFAP Binding assay k(off) (hFAP (M39-A757)) | hFAP Binding assay k(on) (hFAP (M39-A757)) | Kd (hFAP (M39-A757)) | solubility (Kinetic solubility) | IC50 [4] | hHep CLint [5] | IC50 (FAP [6]) | microsomal CLint [7] | IC50 (FAP [8]) |
| --- | --- | --- | --- | --- | --- | --- | --- | --- | --- | --- | --- | --- | --- | --- | --- | --- |
| N#C[C@@H]1CSCN1C(=O)CNC(=O)c1c(F)cnc2ccc(N3CCOCC3)cc12 [Example 2, (R)—N-(2-(4-Cyanothiazolidin-3-yl)-2-oxoethyl)-3-fluoro-6-morpholino-quinoline-4-carboxamide] | 23 ×10⁻⁶ cm/s | 0.98 ×10⁻⁶ cm/s | 31 ×10⁻⁶ cm/s | 32 | 0.52 nM | 7.3 nM | 3 μL/min/1E6 | 0.0038 s⁻¹ | 410000 M⁻¹ s⁻¹ | 9.5 nM | 83 µM (≈ 35.6 µg/mL) | 1700 nM | <1 μL/min/1E6 | 8.1 nM | 22 µL/min/mg | – |
| N#C[C@@H]1CSCN1C(=O)CNC(=O)c1ccnc2ccc(N3CC(C(F)F)C3)cc12 [Example 28, (R)—N-(2-(4-Cyanothiazolidin-3-yl)-2-oxoethyl)-6-(3-(difluoromethyl)-azetidin-1-yl)quinoline-4-carboxamide] | 21 ×10⁻⁶ cm/s | 1.6 ×10⁻⁶ cm/s | 20 ×10⁻⁶ cm/s | 12 | 0.1 nM | 0.5 nM | 13 μL/min/1E6 | 0.00011 s⁻¹ | 1100000 M⁻¹ s⁻¹ | 0.11 nM | 73 µM (≈ 31.5 µg/mL) | 580 nM | 2.6 μL/min/1E6 | 0.2 nM | < 3 µL/min/mg | 0.26 nM |
| N#C[C@@H]1CSCN1C(=O)CNC(=O)c1ccnc2ccc(N3C[C@@H](F)[C@@H](F)C3)cc12 [Example 50, N-(2-((R)-4-Cyanothiazolidin-3-yl)-2-oxoethyl)-6-((3R,4S)-3,4-difluoropyrrolidin-1-yl)quinoline-4-carboxamide] | – | 0.83 ×10⁻⁶ cm/s | 27 ×10⁻⁶ cm/s | 32 | 0.069 nM | 0.5 nM | 20 μL/min/1E6 | – | – | 0.071 nM | 33 µM (≈ 14.2 µg/mL) | 540 nM | 1.7 μL/min/1E6 | 0.3 nM | 13 µL/min/mg | 0.34 nM |
| N#C[C@@H]1CSCN1C(=O)CNC(=O)c1ccnc2ccc(N3CCO[C@H](C(F)(F)F)C3)cc12 [Example 74, N-(2-((R)-4-Cyanothiazolidin-3-yl)-2-oxoethyl)-6-((S)-2-(trifluoromethyl)-morpholino)quinoline-4-carboxamide] | – | 1.8 ×10⁻⁶ cm/s | 53 ×10⁻⁶ cm/s | 29 | 0.094 nM | 0.3 nM | 13 μL/min/1E6 | 0.00016 s⁻¹ | 1100000 M⁻¹ s⁻¹ | 0.14 nM | 180 µM (≈ 86.3 µg/mL) | 2300 nM | <1 μL/min/1E6 | 0.2 nM | 28 µL/min/mg | – |
| CC1(C)CN(c2ccc3nccc(C(=O)NCC(=O)N4CSC[C@H]4C#N)c3c2)CCO1 [Example 88, (R)—N-(2-(4-Cyanothiazolidin-3-yl)-2-oxoethyl)-6-(2,2-dimethyl-morpholino)quinoline-4-carboxamide] | 13 ×10⁻⁶ cm/s | 1.3 ×10⁻⁶ cm/s | 29 ×10⁻⁶ cm/s | 23 | 0.074 nM | 0.3 nM | 8.6 μL/min/1E6 | 0.00034 s⁻¹ | 4200000 M⁻¹ s⁻¹ | 0.082 nM | > 980 µM | 1200 nM | <1 μL/min/1E6 | 0.2 nM | 22 µL/min/mg | 0.31 nM |
| N#C[C@@H]1CSCN1C(=O)CNC(=O)c1ccnc2ccc(N3C4CCC3COC4)cc12 [Example 98, 6-(3-Oxa-8-azabicyclo[3.2.1]octan-8-yl)-N-(2-((R)-4-cyanothiazolidin-3-yl)-2-oxoethyl)quinoline-4-carboxamide] | 8.6 ×10⁻⁶ cm/s | 0.71 ×10⁻⁶ cm/s | 18 ×10⁻⁶ cm/s | 25 | 0.11 nM | 0.4 nM | 13 μL/min/1E6 | 0.000015 s⁻¹ | 1600000 M⁻¹ s⁻¹ | 0.0088 nM | > 1000 µM | 790 nM | 1.8 μL/min/1E6 | 0.2 nM | 26 µL/min/mg | 0.27 nM |
| N#C[C@@H]1CSCN1C(=O)CNC(=O)c1ccnc2ccc(N3CC(F)(CF)C3)cc12 [Example 157, (R)—N-(2-(4-Cyanothiazolidin-3-yl)-2-oxoethyl)-6-(3-fluoro-3-(fluoromethyl)azetidin-1-yl)quinoline-4-carboxamide] | – | 2 ×10⁻⁶ cm/s | 29 ×10⁻⁶ cm/s | 15 | 0.37 nM | 0.6 nM | <1 μL/min/1E6 | 0.00012 s⁻¹ | 1900000 M⁻¹ s⁻¹ | 0.065 nM | 62 µM (≈ 26.8 µg/mL) | 1200 nM | <1 μL/min/1E6 | 0.3 nM | 7.3 µL/min/mg | – |
| Cn1nccc1-c1ccc2nccc(C(=O)NCC(=O)N3CSC[C@H]3C#N)c2c1 [Example 174, (R)—N-(2-(4-Cyanothiazolidin-3-yl)-2-oxoethyl)-6-(1-methyl-1H-pyrazol-5-yl)quinoline-4-carboxamide] | – | 0.54 ×10⁻⁶ cm/s | 25 ×10⁻⁶ cm/s | 46 | 0.26 nM | 0.4 nM | 7.2 μL/min/1E6 | 0.00024 s⁻¹ | 1900000 M⁻¹ s⁻¹ | 0.13 nM | 800 µM (≈ 325 µg/mL) | 87 nM | – | 0.2 nM | 12 µL/min/mg | 0.44 nM |
